Source: patent US4864023A, “Pyrido(3,2,1-IJ)-1,3,4-benzoxadiazine derivatives” (priority 1988, dated 1989)
≈ marks a conversion by molar mass, not a printed value. Where two headings read alike, the source gives them in different places. One block for each molecule: values may come before it.

What was measured:
[1] = system: Bacillus subtilis PCI 219; assay: in vitro antibacterial activity, standard agar dilution method; assay type: cell-based; conditions: PCI219, aerobic, read-out: minimum inhibitory concentration (MIC)
[2] = system: Staphylococcus aureus FDA 209P JC-1; assay: as above; assay type: cell-based; conditions: FDA209P, read-out: minimum inhibitory concentration (MIC)
[3] = system: Staphylococcus aureus NR 2855; assay: as above; assay type: cell-based; conditions: NR2855; Staphylococcus aureus NR 2855; aerobic; agar dilution; read-out: minimum inhibitory concentration (MIC)
[4] = system: Staphylococcus aureus Smith; assay: as above; assay type: cell-based; conditions: Staphylococcus aureus Smith; aerobic; agar dilution; read-out: minimum inhibitory concentration (MIC)
[5] = system: Staphylococcus epidermidis IFO 12993; assay: as above; assay type: cell-based; conditions: IFO12993, aerobic, read-out: minimum inhibitory concentration (MIC)
[6] = system: Staphylococcus epidermidis NR 2942; assay: as above; assay type: cell-based; conditions: NR2942, aerobic, read-out: minimum inhibitory concentration (MIC)
[7] = system: Enterococcus faecalis NR 2943; assay: as above; assay type: cell-based; conditions: NR2943, aerobic, read-out: minimum inhibitory concentration (MIC)
[8] = system: Alcaligenes faecalis IFO 13111; assay: as above; assay type: cell-based; conditions: IFO13111, aerobic, read-out: minimum inhibitory concentration (MIC)
[9] = system: Citrobacter freundii IFO 12681; assay: as above; assay type: cell-based; conditions: IFO12681, aerobic, read-out: minimum inhibitory concentration (MIC)
[10] = system: Enterobacter aerogenes NR 2945; assay: as above; assay type: cell-based; conditions: Klebsiella aerogenes, NR2945, aerobic, read-out: minimum inhibitory concentration (MIC)
[11] = system: Enterobacter cloacae NR 2946; assay: as above; assay type: cell-based; conditions: NR2946, aerobic, read-out: minimum inhibitory concentration (MIC)
[12] = system: Escherichia coli NIHJ JC-2; assay: as above; assay type: cell-based; conditions: NIHJJC2, aerobic, read-out: minimum inhibitory concentration (MIC)
[13] = system: Escherichia coli NR 2630; assay: as above; assay type: cell-based
[14] = system: Klebsiella pneumoniae FDA PCI 602; assay: as above; assay type: cell-based; conditions: FDAPCI602, aerobic, read-out: minimum inhibitory concentration (MIC)
[15] = system: Bordetella bronchiseptica ATCC 4617; assay: as above; assay type: cell-based; conditions: ATCC4617, aerobic, read-out: minimum inhibitory concentration (MIC)
[16] = system: Proteus rettgeri ATCC 14505; assay: as above; assay type: cell-based; conditions: Providencia rettgeri, ATCC14505, aerobic, read-out: minimum inhibitory concentration (MIC)
[17] = system: Proteus vulgaris OX19 ATCC 6898; assay: as above; assay type: cell-based; conditions: ATCC6898, aerobic, read-out: minimum inhibitory concentration (MIC)
[18] = system: Pseudomonas aeruginosa A3; assay: as above; assay type: cell-based; conditions: aerobic, read-out: minimum inhibitory concentration (MIC)
[19] = system: Pseudomonas aeruginosa NR 2950; assay: as above; assay type: cell-based; conditions: NR2950, aerobic, read-out: minimum inhibitory concentration (MIC)
[20] = system: Pseudomonas stutzeri IFO 12695; assay: as above; assay type: cell-based; conditions: Stutzerimonas stutzeri, IFO12695, aerobic, read-out: minimum inhibitory concentration (MIC)
[21] = system: Serratia marcescens IFO 12648; assay: as above; assay type: cell-based; conditions: IFO12648, aerobic, read-out: minimum inhibitory concentration (MIC)
[22] = system: Salmonella typhimurium IFO 12529; assay: as above; assay type: cell-based; conditions: Salmonella enterica, aerobic, read-out: minimum inhibitory concentration (MIC)
[23] = acute toxicity by oral administration; conditions: mouse, in vivo; oral administration, ICR mice; read-out: LD50
Description: The acute toxicity of these compounds was examined by oral administration in ICR mice.

[24] = Staphylococcus aureus FDA 209P JC-1, aerobic, agar dilution
[25] = NR2630, Escherichia coli NR 2630, aerobic, agar dilution, read-out: minimum inhibitory concentration (MIC)

SMILES: CC1CN(c2c(F)cc3c(=O)c(C(=O)O)cn4c3c2OCN4C)CCN1C (stereo not shown) [Example 36, 10-(3,4-dimethyl-1-piperazinyl)-9-fluoro-3-methyl-7-oxo-2,3-dihydro-7H-pyrido[3,2,1-ij]-1,3,4-benzoxadiazine-6-carboxylic acid]
MIC [1]: 0.025 µg/mL (≈ 0.0664 µM)
MIC [2, 24]: 0.39 µg/mL (≈ 1.04 µM)
MIC [3]: 0.1 µg/mL (≈ 0.266 µM)
MIC [4]: 0.1 µg/mL (≈ 0.266 µM)
MIC [5]: 0.2 µg/mL (≈ 0.531 µM)
MIC [6]: 0.2 µg/mL (≈ 0.531 µM)
MIC [7]: 3.13 µg/mL (≈ 8.32 µM)
MIC [8]: 3.13 µg/mL (≈ 8.32 µM)
MIC [9]: 0.2 µg/mL (≈ 0.531 µM)
MIC [10]: 0.05 µg/mL (≈ 0.133 µM)
MIC [11]: 0.1 µg/mL (≈ 0.266 µM)
MIC [12]: 0.1 µg/mL (≈ 0.266 µM)
MIC [13, 25]: 0.05 µg/mL (≈ 0.133 µM)
MIC [14]: 0.39 µg/mL (≈ 1.04 µM)
MIC [15]: 0.39 µg/mL (≈ 1.04 µM)
MIC [16]: 0.78 µg/mL (≈ 2.07 µM)
MIC [17]: 0.025 µg/mL (≈ 0.0664 µM)
MIC [18]: 0.78 µg/mL (≈ 2.07 µM)
MIC [19]: 6.25 µg/mL (≈ 16.6 µM)
MIC [20]: 0.1 µg/mL (≈ 0.266 µM)
MIC [21]: 0.39 µg/mL (≈ 1.04 µM)
MIC [22]: 0.1 µg/mL (≈ 0.266 µM)
LD50 [23]: > 2000 mg/kg

SMILES: CC1CN(c2c(F)cc3c(=O)c(C(=O)O)cn4c3c2OCN4C)CCN1 (stereo not shown) [Example 7, 9-fluoro-3-methyl-10-(3-methyl-1-piperazinyl)-7-oxo-2,3-dihydro-7H-pyrido[3,2,1-ij]-1,3,4-benzoxadiazine-6-carboxylic acid]
MIC [1]: 0.1 µg/mL (≈ 0.276 µM)
MIC ([2]; Staphylococcus aureus): 0.39 µg/mL (≈ 1.08 µM)
MIC [3]: 1.56 µg/mL (≈ 4.31 µM)
MIC [4]: 0.2 µg/mL (≈ 0.552 µM)
MIC [5]: 0.78 µg/mL (≈ 2.15 µM)
MIC [6]: 0.78 µg/mL (≈ 2.15 µM)
MIC [7]: 12.5 µg/mL (≈ 34.5 µM)
MIC [8]: 6.25 µg/mL (≈ 17.2 µM)
MIC [9]: 0.05 µg/mL (≈ 0.138 µM)
MIC [10]: 0.05 µg/mL (≈ 0.138 µM)
MIC [11]: 0.1 µg/mL (≈ 0.276 µM)
MIC [12]: 0.1 µg/mL (≈ 0.276 µM)
MIC [13, 25]: 0.025 µg/mL (≈ 0.069 µM)
MIC [14]: 0.39 µg/mL (≈ 1.08 µM)
MIC [15]: 3.13 µg/mL (≈ 8.64 µM)
MIC [16]: 0.78 µg/mL (≈ 2.15 µM)
MIC [17]: 0.025 µg/mL (≈ 0.069 µM)
MIC [18]: 0.2 µg/mL (≈ 0.552 µM)
MIC [19]: 3.13 µg/mL (≈ 8.64 µM)
MIC [20]: 0.05 µg/mL (≈ 0.138 µM)
MIC [21]: 0.2 µg/mL (≈ 0.552 µM)
MIC [22]: 0.05 µg/mL (≈ 0.138 µM)
LD50 [23]: > 2000 mg/kg

SMILES: CN1COc2c(N3CCCNCC3)c(F)cc3c(=O)c(C(=O)O)cn1c23 [Example 16]
MIC [1]: 0.2 µg/mL (≈ 0.552 µM)
MIC [2, 24]: 0.39 µg/mL (≈ 1.08 µM)
MIC [3]: 6.25 µg/mL (≈ 17.2 µM)
MIC [4]: 0.39 µg/mL (≈ 1.08 µM)
MIC [5]: 1.56 µg/mL (≈ 4.31 µM)
MIC [6]: 1.56 µg/mL (≈ 4.31 µM)
MIC [7]: 25 µg/mL (≈ 69 µM)
MIC [8]: 50 µg/mL (≈ 138 µM)
MIC [9]: 0.1 µg/mL (≈ 0.276 µM)
MIC [10]: 0.05 µg/mL (≈ 0.138 µM)
MIC [11]: 0.1 µg/mL (≈ 0.276 µM)
MIC [12]: 0.2 µg/mL (≈ 0.552 µM)
MIC [14]: 1.56 µg/mL (≈ 4.31 µM)
MIC [15]: 25 µg/mL (≈ 69 µM)
MIC [16]: 1.56 µg/mL (≈ 4.31 µM)
MIC [17]: 0.1 µg/mL (≈ 0.276 µM)
MIC [18]: 0.39 µg/mL (≈ 1.08 µM)
MIC [19]: 6.25 µg/mL (≈ 17.2 µM)
MIC [20]: 0.05 µg/mL (≈ 0.138 µM)
MIC [21]: 0.39 µg/mL (≈ 1.08 µM)
MIC [22]: 0.1 µg/mL (≈ 0.276 µM)
LD50 [23]: > 2000 mg/kg

SMILES: CC1Oc2c(N3CCNCC3)c(F)cc3c(=O)c(C(=O)O)cn(c23)N1C (stereo not shown) [Example 25]
MIC [1]: 0.78 µg/mL (≈ 2.15 µM)
MIC [2, 24]: 6.25 µg/mL (≈ 17.2 µM)
MIC [3]: 12.5 µg/mL (≈ 34.5 µM)
MIC [4]: 1.56 µg/mL (≈ 4.31 µM)
MIC [5]: 6.25 µg/mL (≈ 17.2 µM)
MIC [6]: 6.25 µg/mL (≈ 17.2 µM)
MIC [7]: 100 µg/mL (≈ 276 µM)
MIC [8]: 50 µg/mL (≈ 138 µM)
MIC [9]: 0.78 µg/mL (≈ 2.15 µM)
MIC [10]: 0.39 µg/mL (≈ 1.08 µM)
MIC [11]: 0.78 µg/mL (≈ 2.15 µM)
MIC [12]: 0.78 µg/mL (≈ 2.15 µM)
MIC ([13]; Escherichia coli, NR2630, read-out: minimum inhibitory concentration (MIC)): 0.39 µg/mL (≈ 1.08 µM)
MIC [14]: 3.13 µg/mL (≈ 8.64 µM)
MIC [15]: 100 µg/mL (≈ 276 µM)
MIC [16]: 25 µg/mL (≈ 69 µM)
MIC [17]: 0.1 µg/mL (≈ 0.276 µM)
MIC [18]: 3.13 µg/mL (≈ 8.64 µM)
MIC [19]: 50 µg/mL (≈ 138 µM)
MIC [20]: 0.39 µg/mL (≈ 1.08 µM)
MIC [21]: 3.13 µg/mL (≈ 8.64 µM)
MIC [22]: 0.2 µg/mL (≈ 0.552 µM)

MIC [1]: 0.025 µg/mL (≈ 0.0589 µM)
MIC [2, 24]: 0.39 µg/mL (≈ 0.919 µM)
MIC [3]: 0.39 µg/mL (≈ 0.919 µM)
MIC [4]: 0.2 µg/mL (≈ 0.471 µM)
MIC [5]: 0.39 µg/mL (≈ 0.919 µM)
MIC [6]: 0.39 µg/mL (≈ 0.919 µM)
MIC [7]: 6.25 µg/mL (≈ 14.7 µM)
MIC [8]: 0.78 µg/mL (≈ 1.84 µM)
MIC [9]: 0.025 µg/mL (≈ 0.0589 µM)
MIC [10]: 0.025 µg/mL (≈ 0.0589 µM)
MIC [11]: 0.05 µg/mL (≈ 0.118 µM)
MIC [12]: 0.05 µg/mL (≈ 0.118 µM)
MIC [13, 25]: 0.013 µg/mL (≈ 0.0306 µM)
MIC [14]: 0.2 µg/mL (≈ 0.471 µM)
MIC [15]: 0.39 µg/mL (≈ 0.919 µM)
MIC [16]: 0.39 µg/mL (≈ 0.919 µM)
MIC [17]: 0.025 µg/mL (≈ 0.0589 µM)
MIC [18]: 0.39 µg/mL (≈ 0.919 µM)
MIC [19]: 3.13 µg/mL (≈ 7.37 µM)
MIC [20]: 0.025 µg/mL (≈ 0.0589 µM)
MIC [21]: 0.1 µg/mL (≈ 0.236 µM)
MIC [22]: 0.025 µg/mL (≈ 0.0589 µM)
SMILES: CN1COc2c(N3CCNC(c4ccccc4)C3)c(F)cc3c(=O)c(C(=O)O)cn1c23 (stereo not shown) [Example 8]
